Results published in patent US11845736B2, “Prodrugs of MDMA, MDA, and derivatives thereof” (EmpathBio, Inc., priority 2021, dated 2023).
Values after ≈ are worked out from the molar mass of the structure shown. Where two headings read alike, the source gives them in different places.

Columns and labels:
[1] = healthy human subjects, cited from earlier work
[2] = Compound solubility in FaSSIF
[3] = Compound mouse plasma stability
[4] = Compound chemical stability PBS (pH 6.5)
[5] = Compound chemical stability SGF with pepsin
[6] = Compound chemical stability SGF without pepsin
[7] = cited from earlier work; for Cmax / Tmax: healthy human subjects

CNC(C)Cc1ccc2c(c1)OCO2 (racemic) [MDMA, 3,4-methylenedioxymethamphetamine]
Cmax ([1]; 75 mg MDMA): 130.9 ng/mL
T1/2 (elimination half-life) ([1]; 75 mg MDMA): 7.7 h
Tmax ([1]; 75 mg MDMA): 1.8 h
Cmax ([1]; 125 mg MDMA): 236.4 ng/mL
T1/2 (elimination half-life) ([1]; 125 mg MDMA): 8.6 h
Tmax ([1]; 125 mg MDMA): 2.4 h

CCOC(=O)N(C)C(C)Cc1ccc2c(c1)OCO2 (stereo not shown) [Compound 1, ethyl(1-(benzo[d][1,3]dioxol-5-yl)propan-2-yl)(methyl)carbamate]
solubility [2]: 309 µM (≈ 82 µg/mL)
% Remaining ([3]; 0 minutes): 100.00%
% Remaining ([3]; 15 minutes): 108.51%
% Remaining ([3]; 30 minutes): 87.67%
% Remaining ([3]; 60 minutes): 98.49%
% Remaining ([3]; 120 minutes): 89.31%
% Remaining ([4]; PBS pH 6.5, 0 minutes): 100.00%
% Remaining ([4]; PBS pH 6.5, 30 minutes): 90.48%
% Remaining ([4]; PBS pH 6.5, 60 minutes): 90.36%
% Remaining ([4]; PBS pH 6.5, 120 minutes): 89.59%
% Remaining ([4]; PBS pH 6.5, 240 minutes): 90.28%
% Remaining ([5]; 0 minutes): 100.00%
% Remaining ([5]; 30 minutes): 101.86%
% Remaining ([5]; 60 minutes): 98.61%
% Remaining ([5]; 120 minutes): 103.31%
% Remaining ([5]; 240 minutes): 100.50%
% Remaining ([6]; 0 minutes): 100.00%
% Remaining ([6]; 30 minutes): 103.81%
% Remaining ([6]; 60 minutes): 101.90%
% Remaining ([6]; 120 minutes): 103.81%
% Remaining ([6]; 240 minutes): 104.29%

CCOC(=O)NC(C)Cc1ccc2c(c1)OCO2 (stereo not shown) [Compound 2, ethyl(1-(benzo[d][1,3]dioxol-5-yl)propan-2-yl)carbamate]
solubility [2]: 313 µM (≈ 78.8 µg/mL)
% Remaining ([3]; 0 minutes): 100.00%
% Remaining ([3]; 15 minutes): 101.77%
% Remaining ([3]; 30 minutes): 86.60%
% Remaining ([3]; 60 minutes): 89.02%
% Remaining ([3]; 120 minutes): 84.42%
% Remaining ([4]; PBS pH 6.5, 0 minutes): 100.00%
% Remaining ([4]; PBS pH 6.5, 30 minutes): 89.05%
% Remaining ([4]; PBS pH 6.5, 60 minutes): 87.87%
% Remaining ([4]; PBS pH 6.5, 120 minutes): 91.21%
% Remaining ([4]; PBS pH 6.5, 240 minutes): 88.66%
% Remaining ([5]; 0 minutes): 100.00%
% Remaining ([5]; 30 minutes): 100.95%
% Remaining ([5]; 60 minutes): 97.74%
% Remaining ([5]; 120 minutes): 98.18%
% Remaining ([5]; 240 minutes): 99.08%
% Remaining ([6]; 0 minutes): 100.00%
% Remaining ([6]; 30 minutes): 102.53%
% Remaining ([6]; 60 minutes): 101.64%
% Remaining ([6]; 120 minutes): 90.45%
% Remaining ([6]; 240 minutes): 99.40%

CC(OC(=O)N(C)C(C)Cc1ccc2c(c1)OCO2)OC(=O)C(C)(C)C (stereo not shown) [Compound 3, 1-(((1-(benzo[d][1,3]dioxol-5-yl)propan-2-yl)(methyl)carbamoyl)oxy)ethyl pivalate]
solubility [2]: 101 µM (≈ 37 µg/mL)
% Remaining ([3]; 0 minutes): 100%
% Remaining ([3]; 15 minutes): 0.0%
% Remaining ([3]; 30 minutes): 0.0%
% Remaining ([3]; 60 minutes): 0.0%
% Remaining ([3]; 120 minutes): 0.0%
% Remaining ([4]; PBS pH 6.5, 0 minutes): 100.00%
% Remaining ([4]; PBS pH 6.5, 30 minutes): 103.45%
% Remaining ([4]; PBS pH 6.5, 60 minutes): 107.91%
% Remaining ([4]; PBS pH 6.5, 120 minutes): 105.56%
% Remaining ([4]; PBS pH 6.5, 240 minutes): 96.60%
% Remaining ([5]; 0 minutes): 100.00%
% Remaining ([5]; 30 minutes): 106.44%
% Remaining ([5]; 60 minutes): 108.51%
% Remaining ([5]; 120 minutes): 103.98%
% Remaining ([5]; 240 minutes): 106.17%
% Remaining ([6]; 0 minutes): 100.00%
% Remaining ([6]; 30 minutes): 97.82%
% Remaining ([6]; 60 minutes): 97.35%
% Remaining ([6]; 120 minutes): 93.65%
% Remaining ([6]; 240 minutes): 94.12%

CC(Cc1ccc2c(c1)OCO2)N(C)C(=O)CN (stereo not shown) [Compound 4, 2-amino-N-(1-(benzo[d][1,3]dioxol-5-yl)propan-2-yl)-N-methylacetamide]
solubility [2]: 291 µM (≈ 72.9 µg/mL)
% Remaining ([3]; 0 minutes): 100.00%
% Remaining ([3]; 15 minutes): 102.99%
% Remaining ([3]; 30 minutes): 83.50%
% Remaining ([3]; 60 minutes): 94.51%
% Remaining ([3]; 120 minutes): 87.42%
% Remaining ([4]; PBS pH 6.5, 0 minutes): 100.00%
% Remaining ([4]; PBS pH 6.5, 30 minutes): 88.84%
% Remaining ([4]; PBS pH 6.5, 60 minutes): 92.54%
% Remaining ([4]; PBS pH 6.5, 120 minutes): 92.04%
% Remaining ([4]; PBS pH 6.5, 240 minutes): 92.48%
% Remaining ([5]; 0 minutes): 100.00%
% Remaining ([5]; 30 minutes): 108.06%
% Remaining ([5]; 60 minutes): 98.50%
% Remaining ([5]; 120 minutes): 106.18%
% Remaining ([5]; 240 minutes): 103.88%
% Remaining ([6]; 0 minutes): 100.00%
% Remaining ([6]; 30 minutes): 94.49%
% Remaining ([6]; 60 minutes): 96.72%
% Remaining ([6]; 120 minutes): 96.67%
% Remaining ([6]; 240 minutes): 96.46%

CC(Cc1ccc2c(c1)OCO2)NC(=O)CN (stereo not shown) [Compound 5, 2-amino-N-(1-(benzo[d][1,3]dioxol-5-yl)propan-2-yl)acetamide]
solubility [2]: 304 µM (≈ 71.8 µg/mL)
% Remaining ([3]; 0 minutes): 100.00%
% Remaining ([3]; 15 minutes): 103.33%
% Remaining ([3]; 30 minutes): 87.64%
% Remaining ([3]; 60 minutes): 90.78%
% Remaining ([3]; 120 minutes): 83.06%
% Remaining ([4]; PBS pH 6.5, 0 minutes): 100.00%
% Remaining ([4]; PBS pH 6.5, 30 minutes): 95.53%
% Remaining ([4]; PBS pH 6.5, 60 minutes): 97.09%
% Remaining ([4]; PBS pH 6.5, 120 minutes): 98.67%
% Remaining ([4]; PBS pH 6.5, 240 minutes): 105.87%
% Remaining ([5]; 0 minutes): 100.00%
% Remaining ([5]; 30 minutes): 99.68%
% Remaining ([5]; 60 minutes): 105.84%
% Remaining ([5]; 120 minutes): 94.42%
% Remaining ([5]; 240 minutes): 91.97%
% Remaining ([6]; 0 minutes): 100.00%
% Remaining ([6]; 30 minutes): 101.17%
% Remaining ([6]; 60 minutes): 91.48%
% Remaining ([6]; 120 minutes): 95.49%
% Remaining ([6]; 240 minutes): 100.41%

C[C@H](Cc1ccc2c(c1)OCO2)NC(=O)OC(C)(C)C [Compound 6, tert-butyl(R)-(1-(benzo[d][1,3]dioxol-5-yl)propan-2-yl)carbamate]
solubility [2]: 175 µM (≈ 49 µg/mL)
% Remaining ([3]; 0 minutes): 100%
% Remaining ([3]; 15 minutes): 102%
% Remaining ([3]; 30 minutes): 106%
% Remaining ([3]; 60 minutes): 92%
% Remaining ([3]; 120 minutes): 95%
% Remaining ([4]; PBS pH 6.5, 0 minutes): 100.00%
% Remaining ([4]; PBS pH 6.5, 30 minutes): 84.81%
% Remaining ([4]; PBS pH 6.5, 60 minutes): 93.60%
% Remaining ([4]; PBS pH 6.5, 120 minutes): 103.65%
% Remaining ([4]; PBS pH 6.5, 240 minutes): 91.66%
% Remaining ([5]; 0 minutes): 100.00%
% Remaining ([5]; 30 minutes): 85.17%
% Remaining ([5]; 60 minutes): 79.89%
% Remaining ([5]; 120 minutes): 56.87%
% Remaining ([5]; 240 minutes): 31.48%
% Remaining ([6]; 0 minutes): 100.00%
% Remaining ([6]; 30 minutes): 87.96%
% Remaining ([6]; 60 minutes): 77.20%
% Remaining ([6]; 120 minutes): 57.49%
% Remaining ([6]; 240 minutes): 28.57%

C[C@H](Cc1ccc2c(c1)OCO2)N(C)C(=O)OC(C)(C)C [Compound 7, tert-butyl(R)-(1-(benzo[d][1,3]dioxol-5-yl)propan-2-yl)(methyl)carbamate]
solubility [2]: 257 µM (≈ 75.3 µg/mL)
% Remaining ([3]; 0 minutes): 100%
% Remaining ([3]; 15 minutes): 101%
% Remaining ([3]; 30 minutes): 92%
% Remaining ([3]; 60 minutes): 83%
% Remaining ([3]; 120 minutes): 92%
% Remaining ([4]; PBS pH 6.5, 0 minutes): 100.00%
% Remaining ([4]; PBS pH 6.5, 30 minutes): 94.54%
% Remaining ([4]; PBS pH 6.5, 60 minutes): 105.49%
% Remaining ([4]; PBS pH 6.5, 120 minutes): 105.72%
% Remaining ([4]; PBS pH 6.5, 240 minutes): 102.75%
% Remaining ([5]; 0 minutes): 100.00%
% Remaining ([5]; 30 minutes): 74.97%
% Remaining ([5]; 60 minutes): 63.49%
% Remaining ([5]; 120 minutes): 56.42%
% Remaining ([5]; 240 minutes): 28.25%
% Remaining ([6]; 0 minutes): 100.00%
% Remaining ([6]; 30 minutes): 89.90%
% Remaining ([6]; 60 minutes): 73.62%
% Remaining ([6]; 120 minutes): 61.79%
% Remaining ([6]; 240 minutes): 30.52%

Cc1oc(=O)oc1CN[C@H](C)Cc1ccc2c(c1)OCO2 [Compound 8, (R)-4-(((1-(benzo[d][1,3]dioxol-5-yl)propan-2-yl)amino)methyl)-5-methyl-1,3-dioxol-2-one]
solubility [2]: 283 µM (≈ 82.4 µg/mL)
% Remaining ([3]; 0 minutes): 100%
% Remaining ([3]; 15 minutes): 72%
% Remaining ([3]; 30 minutes): 54%
% Remaining ([3]; 60 minutes): 25%
% Remaining ([3]; 120 minutes): 6%
% Remaining ([4]; PBS pH 6.5, 0 minutes): 100%
% Remaining ([4]; PBS pH 6.5, 30 minutes): 96%
% Remaining ([4]; PBS pH 6.5, 60 minutes): 93%
% Remaining ([4]; PBS pH 6.5, 120 minutes): 75%
% Remaining ([4]; PBS pH 6.5, 240 minutes): 72%
% Remaining ([5]; 0 minutes): 100%
% Remaining ([5]; 30 minutes): 103%
% Remaining ([5]; 60 minutes): 98%
% Remaining ([5]; 120 minutes): 96%
% Remaining ([5]; 240 minutes): 92%
% Remaining ([6]; 0 minutes): 100%
% Remaining ([6]; 30 minutes): 97%
% Remaining ([6]; 60 minutes): 94%
% Remaining ([6]; 120 minutes): 90%
% Remaining ([6]; 240 minutes): 86%

Cc1oc(=O)oc1CN(C)[C@H](C)Cc1ccc2c(c1)OCO2 [Compound 9, (R)-4-(((1-(benzo[d][1,3]dioxol-5-yl)propan-2-yl)(methyl)amino)methyl)-5-methyl-1,3-dioxol-2-one]
solubility [2]: 223 µM (≈ 68.2 µg/mL)
% Remaining ([3]; 0 minutes): 100%
% Remaining ([3]; 15 minutes): 70%
% Remaining ([3]; 30 minutes): 22%
% Remaining ([3]; 60 minutes): 4%
% Remaining ([4]; PBS pH 6.5, 0 minutes): 100%
% Remaining ([4]; PBS pH 6.5, 30 minutes): 83%
% Remaining ([4]; PBS pH 6.5, 60 minutes): 75%
% Remaining ([4]; PBS pH 6.5, 120 minutes): 55%
% Remaining ([4]; PBS pH 6.5, 240 minutes): 32%
% Remaining ([5]; 0 minutes): 100%
% Remaining ([5]; 30 minutes): 97%
% Remaining ([5]; 60 minutes): 92%
% Remaining ([5]; 120 minutes): 87%
% Remaining ([5]; 240 minutes): 71%
% Remaining ([6]; 0 minutes): 1000%
% Remaining ([6]; 30 minutes): 94%
% Remaining ([6]; 60 minutes): 89%
% Remaining ([6]; 120 minutes): 83%
% Remaining ([6]; 240 minutes): 72%

CC(N)Cc1ccc2c(c1)OCO2 (stereo not shown) [MDA]
Cmax ([7]; 75 mg MDA): 7.8 ng/mL
Tmax ([7]; 75 mg MDMA): 5 h
Cmax ([7]; 125 mg MDA): 13.7 ng/mL
Tmax ([7]; 125 mg MDMA): 7 h
MDA formation rate constant ([7]; estimated for both MDMA doses): about 0.75 h
